Experimental findings from PubChem BioAssay AID342 (DTP/NCI, 2004) are described below.

This assay relates to Swiss mice, Sarcoma 180 sc, mean tumor weight T/C. As to the kind of experiment: NCI In Vivo Anticancer Drug Screen. Data for tumor model Sarcoma 180 (subcutaneous) in Swiss mice. The note with it: endpoint: mean tumor weight, higher = larger tumour. In a few lines: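 Readout is the ratio of treated-group measurement to vehicle-control measurement (T/C), based on survival or tumor size in mice carrying transplanted tumors.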

[1] abbreviates: dose: 4.0 mg/kg/injection, schedule: Q01DX007 (ip), vehicle: carboxymethylcellulose (CMC).
Setting [2] is: dose: 6.0 mg/kg/injection, schedule: Q01DX007 (ip), vehicle: carboxymethylcellulose (CMC).

Where “and” joins values, the source holds several entries; their conditions need not be identical. Identical values can stand only once.

Consider `c1ccc2[nH]cnc2c1`, for which the T/C runs as follows: (dose: 31.25 mg/kg/injection, schedule: Q#A X014 (ip), vehicle: carboxymethylcellulose (CMC)) 52 % of control; (dose: 37.12 mg/kg/injection, schedule: Q01DX007 (ip), vehicle: carboxymethylcellulose (CMC)) 84 % of control; (dose: 46.25 mg/kg/injection, schedule: Q01DX007 (ip), vehicle: carboxymethylcellulose (CMC)) 103 % of control; (dose: 62.5 mg/kg/injection, schedule: Q#A X014 (ip), vehicle: carboxymethylcellulose (CMC)) 95 % of control; (dose: 74.25 mg/kg/injection, schedule: Q01DX007 (ip), vehicle: carboxymethylcellulose (CMC)) 76 % of control; (dose: 92.5 mg/kg/injection, schedule: Q01DX007 (ip), vehicle: carboxymethylcellulose (CMC)) 94 % of control. Further, the T/C is 84 % of control (dose: 125.0 mg/kg/injection, schedule: Q#A X014 (ip), vehicle: carboxymethylcellulose (CMC)); 76 % of control (dose: 148.5 mg/kg/injection, schedule: Q01DX007 (ip), vehicle: carboxymethylcellulose (CMC)); 89 % of control (dose: 185.0 mg/kg/injection, schedule: Q01DX007 (ip), vehicle: carboxymethylcellulose (CMC)); 51 % of control (dose: 250.0 mg/kg/injection, schedule: Q#A X014 (ip), vehicle: carboxymethylcellulose (CMC)); 62 % of control (dose: 297.0 mg/kg/injection, schedule: Q01DX007 (ip), vehicle: carboxymethylcellulose (CMC)).
Take `CSc1nc(C)c(Br)c(Sc2nc(N)nc3nc[nH]c23)n1`: the T/C under setting [1] is 91 % of control; the T/C (dose: 5.0 mg/kg/injection, schedule: Q01DX007 (ip), vehicle: carboxymethylcellulose (CMC)) was 84 % of control; the T/C (dose: 5.5 mg/kg/injection, schedule: Q#A X014 (ip), vehicle: carboxymethylcellulose (CMC)) is 43 % of control; the T/C (dose: 5.5 mg/kg/injection, schedule: Q#A X014 (ip), vehicle: methylcellulose (MC)) is 24 % of control; the T/C under setting [2] is 90 % of control; the T/C (dose: 6.2 mg/kg/injection, schedule: Q01DX007 (ip), vehicle: carboxymethylcellulose (CMC)) is 77 % of control. In addition, the T/C was 66 % of control (dose: 7.0 mg/kg/injection, schedule: Q01DX007 (ip), vehicle: carboxymethylcellulose (CMC)); 33 % of control (dose: 8.5 mg/kg/injection, schedule: Q#A X014 (ip), vehicle: carboxymethylcellulose (CMC)); 57 % of control (dose: 8.5 mg/kg/injection, schedule: Q#A X014 (ip), vehicle: methylcellulose (MC)); 74 % of control (dose: 11.0 mg/kg/injection, schedule: Q01DX007 (ip), vehicle: carboxymethylcellulose (CMC)); 69 % of control (dose: 12.5 mg/kg/injection, schedule: Q01DX007 (ip), vehicle: carboxymethylcellulose (CMC)); 24 % of control (dose: 12.5 mg/kg/injection, schedule: Q#A X014 (ip), vehicle: carboxymethylcellulose (CMC)). Besides, the T/C reads like this: (dose: 12.5 mg/kg/injection, schedule: Q#A X014 (ip), vehicle: methylcellulose (MC)) 16 % of control; (dose: 17.0 mg/kg/injection, schedule: Q01DX007 (ip), vehicle: carboxymethylcellulose (CMC)) 31 % of control; (dose: 18.5 mg/kg/injection, schedule: Q#A X014 (ip), vehicle: carboxymethylcellulose (CMC)) 18 % of control; (dose: 18.5 mg/kg/injection, schedule: Q#A X014 (ip), vehicle: methylcellulose (MC)) 7 % of control; (dose: 25.0 mg/kg/injection, schedule: Q01DX007 (ip), vehicle: carboxymethylcellulose (CMC)) 20 % of control; (dose: 37.0 mg/kg/injection, schedule: Q01DX007 (ip), vehicle: carboxymethylcellulose (CMC)) 22 % of control. In addition, the T/C is 52 % of control (dose: 40.0 mg/kg/injection, schedule: Q01DX007 (ip), vehicle: carboxymethylcellulose (CMC)) and 46 % of control (dose: 60.0 mg/kg/injection, schedule: Q01DX007 (ip), vehicle: carboxymethylcellulose (CMC)).
Turning to `COc1cc(C[C@H]2c3cc(OC)c(OC)cc3CCN2C)c(Oc2cc3c(cc2OC)-c2c(OC)c(OC)cc4c2[C@H](C3)N(C)CC4)cc1OC`, the T/C runs as follows: (dose: 7.8 mg/kg/injection, schedule: Q01DX007 (ip), vehicle: saline) 96 % of control; (dose: 15.6 mg/kg/injection, schedule: Q01DX007 (ip), vehicle: saline) 77 % of control; (dose: 31.3 mg/kg/injection, schedule: Q01DX007 (ip), vehicle: saline) 78 % of control; (dose: 62.5 mg/kg/injection, schedule: Q01DX007 (ip), vehicle: saline) 57 % of control and 68 % of control; (dose: 125.0 mg/kg/injection, schedule: Q01DX007 (ip), vehicle: saline) 63 % of control.
Regarding `O=C(O)C(=O)c1ccc(-c2ccccc2)cc1`, the T/C by setting is: under setting [1], 83 % of control; (dose: 8.0 mg/kg/injection, schedule: Q01DX007 (ip), vehicle: carboxymethylcellulose (CMC)) 106 % of control; (dose: 16.0 mg/kg/injection, schedule: Q01DX007 (ip), vehicle: carboxymethylcellulose (CMC)) 71 % of control; (dose: 32.0 mg/kg/injection, schedule: Q01DX007 (ip), vehicle: carboxymethylcellulose (CMC)) 80 % of control.
On to `ClCc1c2ccccc2c(CCl)c2ccccc12`, for which the T/C was 95 % of control (dose: 0.25 mg/kg/injection, schedule: Q01DX007 (ip), vehicle: methylcellulose (MC)); 89 % of control (dose: 0.5 mg/kg/injection, schedule: Q01DX007 (ip), vehicle: methylcellulose (MC)); 122 % of control (dose: 1.0 mg/kg/injection, schedule: Q01DX007 (ip), vehicle: methylcellulose (MC)); 72 % of control (dose: 1.5 mg/kg/injection, schedule: Q01DX007 (ip), vehicle: methylcellulose (MC)); 22 % of control (dose: 1.8 mg/kg/injection, schedule: Q01DX007 (ip), vehicle: other); 113 % of control (dose: 1.8 mg/kg/injection, schedule: Q01DX007 (ip), vehicle: saline). Moreover, the T/C runs as follows: (dose: 2.0 mg/kg/injection, schedule: Q01DX007 (ip), vehicle: methylcellulose (MC)) 72 % of control; (dose: 2.6 mg/kg/injection, schedule: Q01DX007 (ip), vehicle: other) 23 % of control; (dose: 2.6 mg/kg/injection, schedule: Q01DX007 (ip), vehicle: saline) 102 % of control; (dose: 4.0 mg/kg/injection, schedule: Q01DX007 (ip), vehicle: other) 26 % of control; (dose: 6.0 mg/kg/injection, schedule: Q01DX007 (ip), vehicle: other) 17 % of control; (dose: 9.0 mg/kg/injection, schedule: Q01DX007 (ip), vehicle: saline) 40 % of control.
For the molecule `C[C@@H]1C[C@H]2[C@@H]3CCC4=CC(=O)C=C[C@]4(C)[C@@]3(F)[C@@H](O)C[C@]2(C)[C@@]1(O)C(=O)CO`, the T/C runs as follows: (dose: 7.0 mg/kg/injection, schedule: Q01DX007 (sc), vehicle: steriod suspending solution) 50 % of control and 56 % of control; (dose: 11.0 mg/kg/injection, schedule: Q01DX007 (sc), vehicle: steriod suspending solution) 38 % of control and 39 % of control; (dose: 16.0 mg/kg/injection, schedule: Q01DX007 (sc), vehicle: steriod suspending solution) 35 % of control and 36 % of control and 47 % of control; (dose: 24.0 mg/kg/injection, schedule: Q01DX007 (sc), vehicle: steriod suspending solution) 30 % of control and 35 % of control and 40 % of control.
Turning to `O=C(Nc1ccc(NC2=NCCN2)cc1)c1ccc(C(=O)Nc2ccc(NC3=NCCN3)cc2)cc1`, the T/C was 109 % of control (dose: 2.0 mg/kg/injection, schedule: Q01DX007 (ip), vehicle: saline); 95 % of control (dose: 4.0 mg/kg/injection, schedule: Q01DX007 (ip), vehicle: saline); 97 % of control (dose: 8.0 mg/kg/injection, schedule: Q01DX007 (ip), vehicle: saline); 43 % of control (dose: 16.0 mg/kg/injection, schedule: Q01DX007 (ip), vehicle: saline).
Consider `O=C(CCCl)N1CCN(C(=O)CCCl)CC1`, for which the T/C was 66 % of control (dose: 110.0 mg/kg/injection, schedule: Q#A X014 (ip), vehicle: methylcellulose (MC)) and 54 % of control (dose: 167.5 mg/kg/injection, schedule: Q#A X014 (ip), vehicle: methylcellulose (MC)).
Take `[N-]=[N+]=[N-]`: the T/C was 88 % of control (dose: 1.5 mg/kg/injection, schedule: Q01DX007 (ip), vehicle: carboxymethylcellulose (CMC)); 61 % of control (dose: 3.0 mg/kg/injection, schedule: Q01DX007 (ip), vehicle: carboxymethylcellulose (CMC)); 76 % of control under setting [2]; 69 % of control (dose: 12.0 mg/kg/injection, schedule: Q01DX007 (ip), vehicle: carboxymethylcellulose (CMC)).
